Measured values taken from patent US11844803B2, “Renal dysfunction improving drug comprising optical isomer of 1,4-benzothiazepine-1-oxide derivative” (AETAS PHARMA CO., LTD., priority 2017, dated 2023).
Read-outs that look alike come from different tables or passages of the source.

What was measured:
[1] = system: dog with complete atrioventricular block; experiment: Torsades de Pointes in dog with complete atrioventricular block; format: in vivo; settings: dose not given
human renal function = experiment: Action on human renal function: 8-hour urine volume after i.v. administration, double-blinded; format: in vivo, adult human (male); settings: for total urine volume from 0 to 8 hours after administration: hydrochloride, 6 persons, placebo 459.8 (±184.1)
Method: After an adult was caused to completely urinate before administration of the compound (A), the compound (A) was administered to the adult. The study was performed in a double-blinded manner.
(§1) Method: Three groups including a group with 0 mg/kg of the compound (A) being administered (placebo group: 8 persons), a group with 0.05 mg/kg of the compound (A) being administered (6 persons), and a group with 0.15 mg/kg of the compound (A) being administered (6 persons) were made. The hydrochloride of the compound (A) was dissolved in physiological saline and intravenously administered at a rate of 2.5 mL/min for 20 minutes. The urine volume from a time immediately after administration to a time after 8 hours of administration and the maximum plasma concentration immediately after administration were measured.

dog renal function = experiment: Action on dog renal function, anesthetized beagle, ureter cannulation, cumulative i.v. doses; format: in vivo
Method: Method: 5 mg/kg of ketamine hydrochloride (KETALAR FOR INTRAMUSCULAR INJECTION 500 mg, 50 mg/mL, DAIICHI SANKYO COMPANY, LIMITED) was intramuscularly administered to a 10 to 12 kg beagle dog (n=4) as a preanesthetic administration, and then anesthesia was performed by inhale of isoflurane. After intratracheal intubation, isoflurane was inhaled in a range of 1 to 5%, artificial ventilation was carried out, and a tracheal tube was intubated and mounted on a ventilator. The examinations were performed under the ventilation conditions of 10 to 25 mL/kg/stroke and 10 to 20 stroke/min. The lower abdomen was incised, the dog was cannulated in the ureters at the both sides, and urine was continually collected. After the urination became constant, the compound (A) as the first optical isomer component which had been obtained in Example 2 was dissolved in physiological saline, and cumulative doses of 0.1 mg/kg, 0.3 mg/kg, 1 mg/kg, and 3 mg/kg of Compound (A) were administered through the leg veins for 20 minutes each.
A blood sample was obtained before the start of administration of the compound [IV] and every 20 minutes after completion of administration beginning at a time immediately after completion of administration (0 minutes), and changes in urine volume from the ureters at the both sides, Na in urine, K in urine, and a serum creatinine value were examined every 20 minutes.

[2] = system: ischemia/reperfusion injury in kidneys; experiment: Rat kidney ischemia/reperfusion injury model (renal arteries clamped 45 minutes, then reperfusion); format: in vivo, SD rats; settings: 48 hours after administration; hydrochloride, 6 mg/kg in total; n=6; placebo 6.07±0.36; before administration 0.27±0.01
Method: Method: Eleven 8-week-old male SD rats were used and laparotomized under anesthesia, the renal artery of the left kidney, and then after 1 minute, that of the right kidney were clamped using a non-traumatic clip for 45 minutes, and then reperfusion was performed.
The hydrochloride of the first optical isomer component (compound (A)) of the formula [IV] of the present invention was dissolved in physiological saline, and 4 mg/kg (before ischemia) and 2 mg/kg (before and after reperfusion) of the compound (A) (6 mg/kg in total) were administered for 10 minutes before ischemia and before and after reperfusion, respectively. On the other hand, the placebo group was subjected to the same procedure as in the compound (A)—administration group in every way except that only physiological saline was administered instead of physiological saline solution of the hydrochloride of the compound (A). […]
For calculation of a creatinine clearance value, the total urine of during 60 minutes before administration and during 0 to 8, 8 to 24, and 24 to 48 hours after administration were collected in each rat, and the urine volume and the value of creatinine in urine were measured. Further, a blood sample was obtained before administration and after 4, 8, 24, and 48 hours of administration and serum creatinine values were measured over time. […]

[3] = Stability and solubility properties of the substance; format: physicochemical
[4] = Maximum plasma concentration immediately after i.v. administration in adult human; format: in vivo, adult human (male); settings: 0.15 mg/kg i.v. for 20 minutes, hydrochloride, 6 persons
Method: as §1

[5] = system: dog with complete atrioventricular block; settings: 1.2 mg/kg body weight; Non-Patent Document 3; cited from earlier work

COc1ccc2c(c1)CN(C(=O)CCN1CCC(Cc3ccccc3)CC1)CC[S+]2[O-] (single isomer, unassigned) [compound (A), 4-[3-(4-benzylpiperidin-1-yl)propionyl]-7-methoxy-2,3,4,5-tetrahydro-1,4-benzothiazepine-1-oxide]
occurrence of Torsades de Pointes [1]: does not cause Torsades de Pointes
total urine volume from 0 to 8 hours after administration (human renal function; 0.05 mg/kg i.v. for 20 minutes): 545.2 (±362.1) mL
increase in urine volume as compared to the placebo group (significance) (human renal function; 0.05 mg/kg i.v., 0 to 8 hours): significant (p<0.05) increase in urine volume was not recognized
total urine volume from 0 to 8 hours after administration (human renal function; 0.15 mg/kg i.v. for 20 minutes): 914.2 (±431.0) mL
increase in urine volume as compared to the placebo group (significance) (human renal function; 0.15 mg/kg i.v., 0 to 8 hours): significant (p<0.05) increase
urine volume relative to that of the placebo group (human renal function; 0.15 mg/kg i.v., 0 to 8 hours): approximately two times
excretion amount of sodium (amount of urinary sodium) vs control (dog renal function; after 1 mg/kg and 3 mg/kg i.v. (cumulative doses), n=4, FIG. 5): significant increase
excretion amount of potassium (amount of urinary potassium) vs control (dog renal function; after 1 mg/kg and 3 mg/kg i.v. (cumulative doses), n=4, FIG. 6): significant increase
serum creatinine value vs control (dog renal function; after 1 mg/kg and 3 mg/kg i.v. (cumulative doses), n=4, FIG. 7): significant decrease
urine volume vs control (dog renal function; after 1 mg/kg and 3 mg/kg i.v. (cumulative doses, 20 minutes each), n=4, paired t, FIG. 4): significant increase
serum creatinine value [2]: 3.02 ± 0.82 mg/dL
solubility [3]: water-soluble
blood concentration immediately after administration [4]: 349.3 ± 93.7 ng/mL

COc1ccc2c(c1)CN(C(=O)CCN1CCC(Cc3ccccc3)CC1)CCS2 [JTV519, 4-[3-(4-benzylpiperidin-1-yl)propionyl]-7-methoxy-2,3,4,5-tetrahydro-1,4-benzothiazepine]
occurrence of Torsades de Pointes [5]: Torsades de Pointes that is life-threatening arrhythmia occurs

COc1ccc2c(c1)CN(C(=O)CCN1CCC(Cc3ccccc3)CC1)CC[S+]2[O-] (stereo not drawn) [compound having the above formula [Ia]] [4-[3-(4-benzylpiperidin-1-yl)propionyl]-7-methoxy-2,3,4,5-tetrahydro-1,4-benzothiazepine-1-oxide]
skin irritating property (Skin irritating property): has a skin irritating property
solubility [3]: easily dissolved in ethanol and dimethyl sulfoxide (DMSO)
stability ([3]; room temperature): stable to oxygen, humidity, acid, and alkali

COc1ccc2c(c1)CN(C(=O)CCN1CCC(Cc3ccccc3)CC1)CC[S+]2[O-] (stereo not drawn) [oxalate of the compound [Ia]] [4-[3-(4-benzylpiperidin-1-yl)propionyl]-7-methoxy-2,3,4,5-tetrahydro-1,4-benzothiazepine-1-oxide]
solubility [3]: soluble in water, ethanol, and dimethyl sulfoxide
